From PubChem BioAssay AID330 (DTP/NCI, 2004)
Several values for one entry are separate records, joined by “and”; a condition that tells them apart may be missing. Equal entries are not always repeated. Toxic doses and inconclusive results are not listed. The calls were made as follows: active = survival T/C of 150% or more; inactive = T/C below 125% in these data.

System: P388 leukemia ip, CD2F1 mice, survival T/C
Assay: NCI In Vivo Anticancer Drug Screen. Data for tumor model P388 Leukemia (intraperitoneal) in CD2F1 (CDF1) mice
Conditions: endpoint: median survival time, higher = longer survival
Outline: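 Mice carrying the transplanted tumor received test compound or vehicle. Survival was recorded in each group, and the value is the treated-group measurement divided by that of the vehicle-treated control group.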

[1] = dose: 25.0 mg/kg/injection, schedule: Q01DX009 (ip), vehicle: saline with Tween-80
[2] = dose: 50.0 mg/kg/injection, schedule: Q01DX009 (ip), vehicle: saline with Tween-80
[3] = dose: 60.0 mg/kg/injection, schedule: Q01DX005 (ip), vehicle: Klucel + Tween-80
[4] = dose: 120.0 mg/kg/injection, schedule: Q01DX005 (ip), vehicle: Klucel + Tween-80
[5] = dose: 240.0 mg/kg/injection, schedule: Q01DX005 (ip), vehicle: Klucel + Tween-80
[6] = dose: 60.0 mg/kg/injection, schedule: Q01DX005 (ip), vehicle: saline with Tween-80
[7] = dose: 120.0 mg/kg/injection, schedule: Q01DX005 (ip), vehicle: saline with Tween-80
[8] = dose: 240.0 mg/kg/injection, schedule: Q01DX005 (ip), vehicle: saline with Tween-80
[9] = dose: 100.0 mg/kg/injection, schedule: Q04DX002 (ip), vehicle: saline with Tween-80
[10] = dose: 200.0 mg/kg/injection, schedule: Q04DX002 (ip), vehicle: saline with Tween-80

Measured: T/C

O=C(O)/C=C\C(=O)NCCCCCC(=O)O
inactive: dose: 50.0 mg/kg/injection, schedule: Q01DX009 (ip), vehicle: Klucel (hydroxypropylcellulose) (HPC) 102 % of control | dose: 100.0 mg/kg/injection, schedule: Q01DX009 (ip), vehicle: Klucel (hydroxypropylcellulose) (HPC) 103 % of control | dose: 200.0 mg/kg/injection, schedule: Q01DX009 (ip), vehicle: Klucel (hydroxypropylcellulose) (HPC) 105 % of control

O=NN(C(=O)NC1CC1)C1CC1
inactive: dose: 25.0 mg/kg/injection, schedule: Q01DX001 (ip), vehicle: water 111 % of control | dose: 50.0 mg/kg/injection, schedule: Q01DX001 (ip), vehicle: water 102 % of control | dose: 100.0 mg/kg/injection, schedule: Q01DX001 (ip), vehicle: water 109 % of control

c1ccc(CSc2ncnc3n[nH]nc23)cc1
inactive: dose: 3.12 mg/kg/injection, schedule: Q01DX009 (ip), vehicle: saline 100 % of control | dose: 6.25 mg/kg/injection, schedule: Q01DX009 (ip), vehicle: saline 106 % of control | dose: 12.5 mg/kg/injection, schedule: Q01DX009 (ip), vehicle: saline 104 % of control | dose: 25.0 mg/kg/injection, schedule: Q01DX009 (ip), vehicle: saline 100 % of control

CCn1c(C)cc(=NC(=O)c2ccccc2O)n1-c1ccccc1
inactive: dose: 100.0 mg/kg/injection, schedule: Q01DX001 (ip), vehicle: saline with Tween-80 103 % of control | dose: 200.0 mg/kg/injection, schedule: Q01DX001 (ip), vehicle: saline with Tween-80 106 % of control | dose: 400.0 mg/kg/injection, schedule: Q01DX001 (ip), vehicle: saline with Tween-80 102 % of control

CCCCC(S)CS (centres undefined)
inactive: dose: 12.5 mg/kg/injection, schedule: Q01DX005 (ip), vehicle: saline with Tween-80 107 % of control | dose: 25.0 mg/kg/injection, schedule: Q01DX005 (ip), vehicle: saline with Tween-80 103 % of control | dose: 50.0 mg/kg/injection, schedule: Q01DX005 (ip), vehicle: saline with Tween-80 107 % of control and 110 % of control

CN(c1ccccc1)C1C2=C(CCCC2)OC(=O)C12SCCCS2 (centres undefined)
inactive: dose: 25.0 mg/kg/injection, schedule: Q04DX003 (ip), vehicle: saline with Tween-80 94 % of control | dose: 50.0 mg/kg/injection, schedule: Q04DX003 (ip), vehicle: saline with Tween-80 96 % of control | dose: 100.0 mg/kg/injection, schedule: Q04DX003 (ip), vehicle: saline with Tween-80 100 % of control and 98 % of control | dose: 132.0 mg/kg/injection, schedule: Q04DX003 (ip), vehicle: saline with Tween-80 98 % of control | dose: 200.0 mg/kg/injection, schedule: Q04DX003 (ip), vehicle: saline with Tween-80 106 % of control | dose: 300.0 mg/kg/injection, schedule: Q04DX003 (ip), vehicle: saline with Tween-80 119 % of control | dose: 400.0 mg/kg/injection, schedule: Q04DX003 (ip), vehicle: saline with Tween-80 105 % of control and 98 % of control

CC(C)=CCc1c2ccoc2c(O)c2oc(=O)ccc12
inactive: [1] 106 % of control | [2] 105 % of control | dose: 100.0 mg/kg/injection, schedule: Q01DX009 (ip), vehicle: saline with Tween-80 105 % of control

O=C1OC(=O)c2ncccc21
inactive: dose: 6.25 mg/kg/injection, schedule: Q01DX009 (ip), vehicle: saline with Tween-80 101 % of control | dose: 12.5 mg/kg/injection, schedule: Q01DX009 (ip), vehicle: saline with Tween-80 96 % of control | [1] 101 % of control | [2] 111 % of control

COC(=O)c1c[nH]c(=S)n1C
inactive: dose: 100.0 mg/kg/injection, schedule: Q04DX002 (ip), vehicle: saline 98 % of control | dose: 200.0 mg/kg/injection, schedule: Q04DX002 (ip), vehicle: saline 100 % of control | dose: 400.0 mg/kg/injection, schedule: Q04DX002 (ip), vehicle: saline 105 % of control

CC(C)(C)c1cc2c(O)c(c1)Cc1cc(C(C)(C)C)cc(c1O)Cc1cc(C(C)(C)C)cc(c1O)Cc1cc(C(C)(C)C)cc(c1O)C2
inactive: dose: 50.0 mg/kg/injection, schedule: Q01DX005 (ip), vehicle: Klucel (hydroxypropylcellulose) (HPC) 100 % of control | dose: 100.0 mg/kg/injection, schedule: Q01DX005 (ip), vehicle: Klucel (hydroxypropylcellulose) (HPC) 102 % of control | dose: 200.0 mg/kg/injection, schedule: Q01DX005 (ip), vehicle: Klucel (hydroxypropylcellulose) (HPC) 96 % of control

COSc1ccc(OC)cc1
inactive: dose: 100.0 mg/kg/injection, schedule: Q04DX003 (ip), vehicle: saline 102 % of control | dose: 200.0 mg/kg/injection, schedule: Q04DX003 (ip), vehicle: saline 97 % of control

COc1ccc2c(=O)c(-c3ccc(OC)c(OC)c3OCc3ccccc3)coc2c1
inactive: dose: 100.0 mg/kg/injection, schedule: Q01DX001 (ip), vehicle: Klucel (hydroxypropylcellulose) (HPC) 92 % of control | dose: 200.0 mg/kg/injection, schedule: Q01DX001 (ip), vehicle: Klucel (hydroxypropylcellulose) (HPC) 96 % of control | dose: 400.0 mg/kg/injection, schedule: Q01DX001 (ip), vehicle: Klucel (hydroxypropylcellulose) (HPC) 94 % of control

CC1=NC2=CC=CC3=NC(C(Cl)(Cl)Cl)=NC(=N1)N23
inactive: [3] 102 % of control | [4] 102 % of control | [5] 102 % of control

COc1ccc(-n2cnc3c(cnn3C)c2=O)cc1
inactive: dose: 60.0 mg/kg/injection, schedule: Q01DX005 (ip), vehicle: Klucel (hydroxypropylcellulose) (HPC) 100 % of control | dose: 120.0 mg/kg/injection, schedule: Q01DX005 (ip), vehicle: Klucel (hydroxypropylcellulose) (HPC) 91 % of control

COc1nc(NC2OCC(OC(C)=O)C(OC(C)=O)C2OC(C)=O)c(N=C(C)C(C)=O)c(=O)n1C (centres undefined)
inactive: [6] 86 % of control | [7] 92 % of control | [8] 94 % of control

CCC[CH2][Sn]1([CH2]CCC)[S]CC[N]1S(=O)(=O)c1ccc(C)cc1
inactive: dose: 1.0 mg/kg/injection, schedule: Q01DX009 (ip), vehicle: gum acacia 114 % of control | dose: 1.5 mg/kg/injection, schedule: Q01DX009 (ip), vehicle: gum acacia 106 % of control | dose: 2.25 mg/kg/injection, schedule: Q01DX009 (ip), vehicle: gum acacia 120 % of control

CCOc1c(N=Nc2ccccc2)c(C)nn1C(=S)S
inactive: [3] 101 % of control | [4] 101 % of control | [5] 100 % of control

CC12C=CC(C(C(=O)O)C1=O)C2(C)C (centres undefined)
inactive: [9] 107 % of control | [10] 103 % of control

CN1C(=O)C2C=CC1C1C(=O)N(c3ccc([N+](=O)[O-])cc3)C(=O)C21 (centres undefined)
inactive: [9] 103 % of control | [10] 95 % of control | dose: 400.0 mg/kg/injection, schedule: Q04DX002 (ip), vehicle: saline with Tween-80 95 % of control

O=C(Nc1ccc(CC2=NCCCN2)cc1)c1ccc(C(=O)Nc2ccc(CC3=NCCCN3)cc2)cc1
inactive: dose: 0.78 mg/kg/injection, schedule: Q01DX005 (ip), vehicle: saline with Tween-80 93 % of control | dose: 1.56 mg/kg/injection, schedule: Q01DX005 (ip), vehicle: saline with Tween-80 112 % of control

CCCCCCCCCCCCCCCCOS(=O)(=O)O (tested in a mixture with another compound)
inactive: dose: 20.0 mg/kg/injection, schedule: Q01DX009 (ip), vehicle: saline with Tween-80 99 % of control | dose: 40.0 mg/kg/injection, schedule: Q01DX009 (ip), vehicle: saline with Tween-80 92 % of control

COc1ccc(C(c2c(O)c3ccccc3oc2=O)c2c(O)c3ccccc3oc2=O)c(OC)c1
inactive: [6] 106 % of control | [7] 98 % of control | [8] 94 % of control

CC(=O)Nc1ccc(S(=O)(=O)/C(=C/c2ccc(-c3ccc(Br)cc3)o2)c2ccc([N+](=O)[O-])o2)cc1
inactive: dose: 50.0 mg/kg/injection, schedule: Q01DX009 (ip), vehicle: suspension in saline 86 % of control | dose: 100.0 mg/kg/injection, schedule: Q01DX009 (ip), vehicle: suspension in saline 104 % of control
